Laboratory results as given in PMC11589570, “Critical assessment of LC3/GABARAP ligands used for degrader development and ligandability of LC3/GABARAP binding pockets” (Nature Communications, 2024).
“And” between values parts separate entries of the source, which are not always exact repeats. Identical values can stand only once.

How the values were obtained:
Format in all cases: binding
LC3A = LC3A (Homo sapiens, UniProt Q9H492); experiment: FP assay with Cy5-labelled p62 LIR tracer (protein titration and tracer displacement); settings: for FP assay result (normalised FP signal): replicates, listed as TH152
LC3B = LC3B (Homo sapiens, UniProt Q9GZQ8); experiment: as above; settings: replicates, listed as TH152
[1] = tested on: LC3/GABARAPs (human Atg8 family); experiment: FP assay with Cy5-labelled p62 LIR tracer, statements on all LC3/GABARAPs

% tracer bound @LC3A (LC3A; LC3A tracer displacement, normalized on p62-LIR positive control): 26% | FP assay result (normalised FP signal) (LC3A; log10 concentration [M] -3.5): 16.9522 and 16.2308 and 9.017 and 3.246 | FP assay result (normalised FP signal) (LC3A; log10 concentration [M] -5.5): 90.532 and 94.4995 and 92.3354 (2×) | FP assay result (normalised FP signal) (LC3A; log10 concentration [M] -8): 101.353 (2×) and 90.1713 and 94.4995 | FP assay result (normalised FP signal) (LC3B; log10 concentration [M] -3.5): 5.227 and 1.651 and 6.602 and 11.5543 | FP assay result (normalised FP signal) (LC3B; log10 concentration [M] -8.5): 94.9106 and 100.413 (2×) and 103.439 | interaction with LC3/GABARAP family members in FP displacement assay [1]: interacted with all LC3/GABARAPs
SMILES: CCCCCCC(Sc1nc(Cl)cc(Nc2nc(-c3ccc(C(=O)O)cc3)cs2)n1)C(=O)O (stereo not drawn) [compound 21]
FP assay result (normalised FP signal) (LC3A; log10 concentration [M] -4): 23.8052 and 27.7728 and 15.8702 and 10.8206 | FP assay result (normalised FP signal) (LC3A; log10 concentration [M] -4.5): 40.3968 and 45.4463 and 36.0685 and 29.5762 | FP assay result (normalised FP signal) (LC3A; log10 concentration [M] -5): 79.7115 and 85.4824 and 71.4157 and 74.3012 | FP assay result (normalised FP signal) (LC3A; log10 concentration [M] -6): 102.435 and 103.156 and 95.2209 and 98.4671 | FP assay result (normalised FP signal) (LC3A; log10 concentration [M] -6.5): 94.8602 and 102.795 and 92.3354 and 90.8927 | FP assay result (normalised FP signal) (LC3A; log10 concentration [M] -7): 102.074 and 100.271 and 99.1885 and 98.4671 | FP assay result (normalised FP signal) (LC3A; log10 concentration [M] -7.5): 103.877 and 100.271 and 96.6637 and 94.4995 | FP assay result (normalised FP signal) (LC3A; log10 concentration [M] -8.5): 95.9423 and 95.2209 and 93.4175 and 99.9098 | FP assay result (normalised FP signal) (LC3B; log10 concentration [M] -4): 15.956 and 18.4319 and 23.3838 and 18.9821 | FP assay result (normalised FP signal) (LC3B; log10 concentration [M] -4.5): 38.7895 and 39.3398 and 43.1912 and 47.3177 | FP assay result (normalised FP signal) (LC3B; log10 concentration [M] -5): 78.6795 and 79.2297 and 89.1334 and 88.033 | FP assay result (normalised FP signal) (LC3B; log10 concentration [M] -5.5): 90.5089 and 85.8322 and 98.2118 and 94.9106 | FP assay result (normalised FP signal) (LC3B; log10 concentration [M] -6): 92.7098 and 95.4608 and 102.063 and 101.238 | FP assay result (normalised FP signal) (LC3B; log10 concentration [M] -6.5): 91.0591 and 89.9587 and 97.9367 and 96.8363 | FP assay result (normalised FP signal) (LC3B; log10 concentration [M] -7): 91.6094 and 98.762 and 103.439 and 102.063 | FP assay result (normalised FP signal) (LC3B; log10 concentration [M] -7.5): 90.2338 and 98.4869 and 99.3122 and 100.138 | FP assay result (normalised FP signal) (LC3B; log10 concentration [M] -8): 98.762 and 98.2118 and 100.413 and 102.613
